Experimental data published in US8865706B2, “Heteroaryl-substituted hexahydropyrano[3,4-d][1,3]thiazin-2-amine compounds” (Pfizer Inc., priority 2013, dated 2014).
pIC50: −log10 of the molar value.

Legend:
[1] = system: sAPPβ levels in H4 human neuroglioma cells over-expressing the wild-type human APP695; test: Whole Cell Assay (In Vitro sAPPb Assay); format: cell-based; conditions: 18 hours treatment, average of 2 determinations, values marked b: geometric mean of 3-9 determinations
Procedure: Whole Cell Assay (In Vitro sAPPb Assay):
H4 human neuroglioma cells over-expressing the wild-type human APP695 are treated for 18 hours with compound in a final concentration 1% DMSO. sAPPβ levels are measured using TMB-ELISA with capture APP N-terminal antibody (Affinity BioReagents, OMA1-03132), wild-type sAPPβ specific reporter p192 (Elan), and tertiary anti rabbit-HRP (GE Healthcare).

BACE1 enzyme = BACE1 enzyme (Homo sapiens (Human), UniProt P56817); test: BACE1 Cell-Free Assay (fluorescence polarization, cleavage of synthetic APP substrate); format: biochemical; conditions: average of 2 determinations; values marked b: geometric mean of 3-9 determinations
BACE1 enzyme, sequence (P56817 46-457): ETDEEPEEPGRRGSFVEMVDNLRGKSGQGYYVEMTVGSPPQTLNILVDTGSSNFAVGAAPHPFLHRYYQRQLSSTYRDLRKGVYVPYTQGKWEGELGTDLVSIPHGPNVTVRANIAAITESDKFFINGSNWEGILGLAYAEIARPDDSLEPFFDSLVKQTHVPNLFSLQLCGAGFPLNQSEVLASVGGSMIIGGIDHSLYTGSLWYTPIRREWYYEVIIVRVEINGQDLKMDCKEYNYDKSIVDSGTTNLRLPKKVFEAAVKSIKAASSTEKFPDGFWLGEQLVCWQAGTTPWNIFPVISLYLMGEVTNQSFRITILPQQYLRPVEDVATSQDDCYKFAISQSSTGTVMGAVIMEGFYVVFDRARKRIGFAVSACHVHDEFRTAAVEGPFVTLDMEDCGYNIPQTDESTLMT
From the text: This assay measures the inhibition of the beta-secretase enzyme as it cleaves a non-native peptide.
A synthetic APP substrate that can be cleaved by beta-secretase having N-terminal biotin and made fluorescent by the covalent attachment of Oregon Green at the Cys residue is used to assay beta-secretase activity in the presence or absence of the inhibitory compounds. […] The BACE1 enzyme is affinity purified material from conditioned media of CHO-K1 cells that have been transfected with a soluble BACE construct (BACE1deltaTM96His). Compounds are incubated in a ½ log dose response curve from a top concentration of 100 μM with BACE1 enzyme and the biotinylated fluorescent peptide in 384-well black plates (Thermo Scientific #4318). BACE1 is at a final concentration of 0.1 nM with a final concentration of peptide substrate of 150 nM in a reaction volume of 30 μL assay buffer [100 mM sodium acetate, pH 4.5 (brought to pH with acetic acid), and 0.001% Tween-20]. Plates are covered and incubated for 3 hours at 37° C. The reaction is stopped with the addition of 30 μL of 1.5 μM Streptavidin (Pierce, #21125). After a 10 minute incubation at room temperature, plates are read on a PerkinElmer EnVision for fluorescence polarization (Ex485 nm/Em530 nm). The activity of the beta-secretase enzyme is detected by changes in the fluorescence polarization that occur when the substrate is cleaved by the enzyme.

| pIC50 ([1]; Homo sapiens) | pIC50 (BACE1 enzyme) | Molecule | pIC50 [1] |
| --- | --- | --- | --- |
| 8.57 |  | NC1=N[C@@]2(c3ccc(F)cc3F)CO[C@@H](c3cncc(F)c3)C[C@H]2CS1 [Example 29, (4aR,6R,8aS)-8a-(2,4-difluorophenyl)-6-(5-fluoropyridin-3-yl)-4,4a,5,6,8,8a-hexahydropyrano[3,4-d][1,3]thiazin-2-amine] |  |
| 8.17 |  | Cc1ccc([C@H]2C[C@H]3CSC(N)=N[C@@]3(c3ccc(F)cc3F)CO2)cn1 (relative stereo) [Example 7, rel-(4aR,6R,8aS)-8a-(2,4-Difluorophenyl)-6-(6-methylpyridin-3-yl)-4,4a,5,6,8,8a-hexahydropyrano[3,4-d][1,3]thiazin-2-amine] |  |
| 7.81 | 5.67 | NC1=N[C@@]2(c3ccc(F)cc3F)CO[C@@H](c3ccc4nccn4c3)C[C@H]2CS1 [Example 28, (4aR,6R,8aS)-8a-(2,4-Difluorophenyl)-6-(imidazo[1,2-a]pyridin-6-yl)-4,4a,5,6,8,8a-hexahydropyrano[3,4-d][1,3]thiazin-2-amine] |  |
| 8.13 | 6.92 | Cn1cc([C@H]2C[C@H]3CSC(N)=N[C@@]3(c3ccc(F)cc3F)CO2)ccc1=O [Example 3, 5-[(4aR,6R,8aS)-2-Amino-8a-(2,4-difluorophenyl)-4,4a,5,6,8,8a-hexahydropyrano[3,4-d][1,3]thiazin-6-yl]-1-methylpyridin-2(1H)-one] |  |
| 7.88 | 7.26 | Cc1cc([C@H]2C[C@H]3[C@@H](CF)SC(N)=N[C@@]3(c3ccc(F)cc3F)CO2)on1 [Example 13, (4S,4aR,6R,8aS)-8a-(2,4-Difluorophenyl)-4-(fluoromethyl)-6-(3-methyl-1,2-oxazol-5-yl)-4,4a,5,6,8,8a-hexahydropyrano[3,4-d][1,3]thiazin-2-amine] |  |
| 7.39 | 5.30 | NC1=N[C@@]2(c3ccc(F)cc3F)CO[C@@H](c3nc4ccncc4o3)C[C@H]2CS1 [Example 23, (4aR,6R,8aS)-8a-(2,4-Difluorophenyl)-6-([1,3]oxazolo[5,4-c]pyridin-2-yl)-4,4a,5,6,8,8a-hexahydropyrano[3,4-d][1,3]thiazin-2-amine] |  |
| 7.39 | 6.42 | COc1cc([C@H]2C[C@H]3CSC(N)=N[C@@]3(c3ccc(F)cc3F)CO2)ccn1 [Example 25, (4aR,6R,8aS)-8a-(2,4-Difluorophenyl)-6-(2-methoxypyridin-4-yl)-4,4a,5,6,8,8a-hexahydropyrano[3,4-d][1,3]thiazin-2-amine] |  |
| 8.20 |  | Cn1cc([C@H]2C[C@H]3[C@@H](CF)SC(N)=N[C@@]3(c3ccc(F)cc3F)CO2)cn1 [Example 22, (4S,4aR,6R,8aS)-8a-(2,4-Difluorophenyl)-4-(fluoromethyl)-6-(1-methyl-1H-pyrazol-4-yl)-4,4a,5,6,8,8a-hexahydropyrano[3,4-d][1,3]thiazin-2-amine] |  |
| 7.68 | 6.64 | NC1=N[C@@]2(c3ccc(F)cc3F)CO[C@@H](c3nc(C(F)F)co3)C[C@H]2CS1 [Example 14, (4aR,6R,8aS)-6-[4-(Difluoromethyl)-1,3-oxazol-2-yl]-8a-(2,4-difluorophenyl)-4,4a,5,6,8,8a-hexahydropyrano[3,4-d][1,3]thiazin-2-amine] |  |
| 7.67 | 6.62 | NC1=N[C@@]2(c3ccc(F)cc3F)CO[C@@H](c3nc4cnccc4o3)C[C@H]2CS1 [Example 10, (4aR,6R,8aS)-8a-(2,4-difluorophenyl)-6-([1,3]oxazolo[4,5-c]pyridin-2-yl)-4,4a,5,6,8,8a-hexahydropyrano[3,4-d][1,3]thiazin-2-amine] |  |
| 7.18 | 5.74 | NC1=N[C@@]2(c3ccc(F)cc3F)CO[C@@H](c3cn4cccnc4n3)C[C@H]2CS1 [Example 4, (4aR,6R,8aS)-8a-(2,4-Difluorophenyl)-6-(imidazo[1,2-a]pyrimidin-2-yl)-4,4a,5,6,8,8a-hexahydropyrano[3,4-d][1,3]thiazin-2-amine] |  |
| 6.91 | 5.27 | CCOc1cc([C@H]2C[C@H]3CSC(N)=N[C@@]3(c3ccc(F)cc3F)CO2)nn1C [Example 21, (4aR,6R,8aS)-8a-(2,4-Difluorophenyl)-6-(5-ethoxy-1-methyl-1H-pyrazol-3-yl)-4,4a,5,6,8,8a-hexahydropyrano[3,4-d][1,3]thiazin-2-amine] |  |
| 7.38 | 6.47 | Cc1nc([C@H]2C[C@H]3CSC(N)=N[C@@]3(c3ccc(F)cc3F)CO2)no1 [Example 6, (4aR,6R,8aS)-8a-(2,4-Difluorophenyl)-6-(5-methyl-1,2,4-oxadiazol-3-yl)-4,4a,5,6,8,8a-hexahydropyrano[3,4-d][1,3]thiazin-2-amine] |  |
| 7.74 | 6.63 | NC1=N[C@@]2(c3ccc(F)cc3F)CO[C@@H](c3ccc(F)cn3)C[C@H]2CS1 [Example 2, (4aR,6R,8aS)-8a-(2,4-Difluorophenyl)-6-(5-fluoropyridin-2-yl)-4,4a,5,6,8,8a-hexahydropyrano[3,4-d][1,3]thiazin-2-amine] |  |
| 8.33 | 6.66 | Cc1cc([C@H]2C[C@H]3CSC(N)=N[C@@]3(c3ccc(F)cc3F)CO2)ccn1 [Example 27, (4aR,6R,8aS)-8a-(2,4-Difluorophenyl)-6-(2-methylpyridin-4-yl)-4,4a,5,6,8,8a-hexahydropyrano[3,4-d][1,3]thiazin-2-amine] |  |
| 7.88 | 7.14 | NC1=N[C@@]2(c3ccc(F)cc3F)CO[C@@H](c3cnn(CC(F)(F)F)c3)C[C@H]2CS1 [Example 5, (4aR,6R,8aS)-8a-(2,4-Difluorophenyl)-6-[1-(2,2,2-trifluoroethyl)-1H-pyrazol-4-yl]-4,4a,5,6,8,8a-hexahydropyrano[3,4-d][1,3]thiazin-2-amine] |  |
| 7.22 | 5.85 | Cc1ncc([C@H]2C[C@H]3CSC(N)=N[C@@]3(c3ccc(F)cc3F)CO2)cn1 [Example 17, (4aR,6R,8aS)-8a-(2,4-difluorophenyl)-6-(2-methylpyrimidin-5-yl)-4,4a,5,6,8,8a-hexahydropyrano[3,4-d][1,3]thiazin-2-amine] |  |
| 7.69 | 6.41 | Cc1cnc([C@H]2C[C@H]3CSC(N)=N[C@@]3(c3ccc(F)cc3F)CO2)cn1 [Example 20, (4aR,6R,8aS)-8a-(2,4-Difluorophenyl)-6-(5-methylpyrazin-2-yl)-4,4a,5,6,8,8a-hexahydropyrano[3,4-d][1,3]thiazin-2-amine] |  |
| 7.58 | 6.79 | Cn1cc(F)c([C@H]2C[C@H]3CSC(N)=N[C@@]3(c3ccc(F)cc3F)CO2)n1 [Example 8, (4aR,6R,8aS)-8a-(2,4-difluorophenyl)-6-(4-fluoro-1-methyl-1H-pyrazol-3-yl)-4,4a,5,6,8,8a-hexahydropyrano[3,4-d][1,3]thiazin-2-amine] |  |
| 7.38 | 6.33 | Cn1ncc([C@H]2C[C@H]3CSC(N)=N[C@@]3(c3ccc(F)cc3F)CO2)n1 [Example 12, (4aR,6R,8aS)-8a-(2,4-Difluorophenyl)-6-(2-methyl-2H-1,2,3-triazol-4-yl)-4,4a,5,6,8,8a-hexahydropyrano[3,4-d][1,3]thiazin-2-amine] |  |
| 7.20 | 5.90 | COc1cncc([C@H]2C[C@H]3CSC(N)=N[C@@]3(c3ccc(F)cc3F)CO2)c1 [Example 26, (4aR,6R,8aS)-8a-(2,4-Difluorophenyl)-6-(5-methoxypyridin-3-yl)-4,4a,5,6,8,8a-hexahydropyrano[3,4-d][1,3]thiazin-2-amine] |  |
| 5.87 | 4.44 | Cc1cnc([C@@H]2C[C@@H]3CSC(N)=N[C@]3(c3ccc(F)cc3F)CO2)cn1 [Example C89, (4aS,6S,8aR)-8a-(2,4-difluorophenyl)-6-(5-methylpyrazin-2-yl)-4,4a,5,6,8,8a-hexahydropyrano[3,4-d][1,3]thiazin-2-amine] |  |
| 8.42 | 7.08 | Cn1nc([C@H]2C[C@H]3CSC(N)=N[C@@]3(c3ccc(F)cc3F)CO2)cc1F [Example 1, (4aR,6R,8aS)-8a-(2,4-difluorophenyl)-6-(5-fluoro-1-methyl-1H-pyrazol-3-yl)-4,4a,5,6,8,8a-hexahydropyrano[3,4-d][1,3]thiazin-2-amine] |  |
|  |  | (4aR,6R,8aS)-8a-(2,4-Difluorophenyl)-6-[1-(^2H3)methyl-1H-pyrazol-4-yl]-4,4a,5,6,8,8a-hexahydropyrano[3,4-d][1,3]thiazin-2-amine [Example 15] | 8.36 |

| Molecule | pIC50 ([1]; Homo sapiens) | pIC50 (BACE1 enzyme) | pIC50 [1] |
| --- | --- | --- | --- |
| Cc1cc([C@H]2C[C@H]3[C@@H](C)SC(N)=N[C@@]3(c3ccc(F)cc3F)CO2)on1 [Example 9, (4R,4aR,6R,8aS)-8a-(2,4-difluorophenyl)-4-methyl-6-(3-methyl-1,2-oxazol-5-yl)-4,4a,5,6,8,8a-hexahydropyrano[3,4-d][1,3]thiazin-2-amine] | 8.28 | 7.12 |  |
